Measurements taken from patent EP3041353B1, “COMPOSITIONS COMPRISING BACTERIOSTATIC AGENTS AND BRILLIANT BLUE G” (priority 2013, dated 2015).

What was measured:
[1] = test system: Clavibacter michiganensis; assay: Bacteriostatic effect of Octenidin with BBG: turbidity after 24 h incubation; assay type: cell-based; design: key: +: Bakterienwachstum nach 24 h Inkubation; -: kein Bakterienwachstum nach 24 h Inkubation
Procedure: (§1) Zur Untersuchung des Einflusses von BBG auf die bakteriostatische Wirkung wurden Bakterien 24 h mit erfindungsgemäßen Zusammensetzungen, Benzalkoniumchlorid (BAK) und Octenidin (Oct) als Bakteriostatikum enthielten, inkubiert. Wenn sich die Inkubationsmischung trübte, wurde das als Bakterienwachstum interpretiert. Zum Vergleich wurde Brillantblau R (BBR) anstelle von BBG eingesetzt. Die Ergebnisse sind in den Tabellen 1-4 wiedergegeben. Tabelle 1: Einfluss von BBG und BBR auf die bakteriostatische Wirkung von BAK gegenüber Escherichia coli (E. coli), + = Bakterienwachstum nach 24 h Inkubation, - = kein Bakterienwachstum nach 24 h Inkubation, R = Brillantblau R (BBR), G = Brillantblau G (BBG).
(§2) Tabelle 4: Einfluss von BBG auf die bakteriostatische Wirkung von Octenidin (Oct) gegenüber Gram-positiven Bakterien., + = Bakterienwachstum nach 24 h Inkubation, - = kein Bakterienwachstum nach 24 h Inkubation, +/- = geringes Wachstum nach 24 h Inkubation, BBG = Brillantblau G.

[2] = test system: Bacillus megaterium; assay: as above; assay type: cell-based; design: key: +: Bakterienwachstum nach 24 h Inkubation; -: kein Bakterienwachstum nach 24 h Inkubation
Procedure: as §1, §2

[3] = test system: HCE-Zellen; assay type: cell-based, human
Procedure: Die Erfindung wird im Folgenden rein zu Veranschaulichungszwecken anhand der angehängten Figuren und von Ausführungsbeispielen näher erläutert. • Figur 1 Effekt von 0,025% BBG auf die Toxizität von unterschiedlichen Konzentrationen (in Gew.-%) von Benzalkoniumchlorid (BAK) auf HCE-Zellen (HCE = human corneal epithelium, Menschliche Hornhautepithelzellen) bei verschiedenen Einwirkdauern (5, 30, 60 min). Oben: BAK ohne BBG. Unten: BAK mit BBG. Inkubationsmedium: Phosphat-gepufferte Kochsalzlösung (PBS). • Figur 2 Effekt von BBG (in Gew.-%) in unterschiedlichen Konzentrationen auf die Toxizität von BAK bei 0,003% (oben) und 0,008% (unten). PBS = Phosphat-gepufferte Kochsalzlösung; BBS = balanced salt solution (ausgeglichene Salzlösung). • Figur 3 Effekt von BBG (0,025 Gew.-%) auf die Toxizität von Octenidindihydrochlorid (Oct) in unterschiedlichen Konzentrationen (in Gew.-%) nach 5 min Inkubation (oben) und 30 min Inkubation (unten). Octenidin alone = Octenidin allein (ohne BBG). • Figur 4 Effekt von BBG (0,025 %) auf die Toxizität von Cetylpyridiniumchlorid (CPC) in unterschiedlichen Konzentrationen (in Gew.-%) nach 5 min Inkubation (oben) und 30 min Inkubation (unten). CPC alone = Cetylpyridiniumchlorid allein (ohne BBG). • Figur 5 Effekt von BBG (0,025 %) auf die Toxizität von Chlorhexidin (CHex) in Form von Chlorhexidindigluconat in unterschiedlichen Konzentrationen (in Gew.-%) nach 5 min Inkubation (oben) und 30 min Inkubation (unten). Chlorhexidin alone = Chlorhexidin allein (ohne BBG)
Figur 1 zeigt die Wirkung von BBG 0,025% Gew.-% auf die Toxizität von unterschiedlichen Konzentrationen (in Gew.-%) von Benzalkoniumchlorid (BAK) auf HCE-Zellen (HCE = human corneal epithelium, Menschliche Hornhautepithelzellen) bei verschiedenen Einwirkdauern (5, 30, 60 min).
Figur 2 zeigt die Wirkung von BBG (in Gew.-%) in unterschiedlichen Konzentrationen und zwei unterschiedlichen Medien (PBS und BSS) auf die Toxizität von BAK bei 0,003% (oben) und 0,008% (unten) bei HCE-Zellen. Die Schutzwirkung von BBG bei niedrigeren BAK-Konzentrationen setzt schon bei 0,003% BBG ein. Bei höheren BAK-Konzentrationen sind 0,015% notwendig.
Figur 3 zeigt die Wirkung von BBG (0,025 Gew.-%) auf die Toxizität von Octenidin (Oct) Form von Octenidindihydrochlorid in unterschiedlichen Konzentrationen (in Gew.-%) nach 5 min Inkubation (oben) und 30 min Inkubation (unten). Octenidin alone = Octenidin allein (ohne BBG). […] BBG (0,025 Gew.-%) kann diesen Effekt bei 5 min Inkubation (links) bis zu einer Oct-Konzentration von 0,01% (der höchsten getesteten Konzentration) verhindern. Bei 30 min Einwirkzeit (rechts) ist erst ab 0,009 Gew.-% Oct der Schutz nicht mehr maximal.
Die Figuren 4 und 5 zeigen die Wirkung von BBG (0,025 Gew.-%) auf die Toxizität von Cetylpyridiniumchlorid (CPC, Fig. 4) und Chlorhexidin (CHex in Form von Chlorhexidindigluconat, Fig. 5) in unterschiedlichen Konzentrationen (in Gew.-%) nach 5 min Inkubation (jeweils oben) und 30 min Inkubation (jeweils unten).

CCOc1ccc(Nc2ccc(C(=C3C=CC(=[N+](CC)Cc4cccc(S(=O)(=O)[O-])c4)C=C3C)c3ccc(N(CC)Cc4cccc(S(=O)(=O)O)c4)cc3C)cc2)cc1 [BBG, Brillantblau G]
-: Bakterienwachstum nach 24 h Inkubation ([1]; 0,007% BBG + Octenidin 0,01%) | Bakterienwachstum nach 24 h Inkubation ([1]; 0,007% BBG + Octenidin 0,003%) | Bakterienwachstum nach 24 h Inkubation ([1]; 0,007% BBG + Octenidin 0,005%) | Bakterienwachstum nach 24 h Inkubation ([1]; 0,007% BBG + Octenidin 0,007%) | Bakterienwachstum nach 24 h Inkubation ([1]; 0,007% BBG + Octenidin 0,009%) | Bakterienwachstum nach 24 h Inkubation ([1]; 0,015% BBG + Octenidin 0,01%) | Bakterienwachstum nach 24 h Inkubation ([1]; 0,015% BBG + Octenidin 0,005%) | Bakterienwachstum nach 24 h Inkubation ([1]; 0,015% BBG + Octenidin 0,007%) | Bakterienwachstum nach 24 h Inkubation ([1]; 0,015% BBG + Octenidin 0,009%) | Bakterienwachstum nach 24 h Inkubation ([1]; 0,030% BBG + Octenidin 0,01%) | Bakterienwachstum nach 24 h Inkubation ([1]; 0,030% BBG + Octenidin 0,009%) | Bakterienwachstum nach 24 h Inkubation ([2]; 0,007% BBG + Octenidin 0,01%) | Bakterienwachstum nach 24 h Inkubation ([2]; 0,007% BBG + Octenidin 0,002%) | Bakterienwachstum nach 24 h Inkubation ([2]; 0,007% BBG + Octenidin 0,003%) | Bakterienwachstum nach 24 h Inkubation ([2]; 0,007% BBG + Octenidin 0,005%) | Bakterienwachstum nach 24 h Inkubation ([2]; 0,007% BBG + Octenidin 0,007%) | Bakterienwachstum nach 24 h Inkubation ([2]; 0,007% BBG + Octenidin 0,009%) | Bakterienwachstum nach 24 h Inkubation ([2]; 0,015% BBG + Octenidin 0,01%) | Bakterienwachstum nach 24 h Inkubation ([2]; 0,015% BBG + Octenidin 0,005%) | Bakterienwachstum nach 24 h Inkubation ([2]; 0,015% BBG + Octenidin 0,007%) | Bakterienwachstum nach 24 h Inkubation ([2]; 0,015% BBG + Octenidin 0,009%) | Bakterienwachstum nach 24 h Inkubation ([2]; 0,030% BBG + Octenidin 0,01%) | Bakterienwachstum nach 24 h Inkubation ([2]; 0,030% BBG + Octenidin 0,009%)
≥ 0,009 Gew.-%: Oct-Konzentration, ab der der Schutz nicht mehr maximal ist ([3]; BBG 0,025 Gew.-%, 30 min Einwirkzeit (Figur 3))
0,015%: BBG-Konzentration, die für die Schutzwirkung notwendig ist ([3]; höhere BAK-Konzentration (BAK 0,008%), PBS and BSS (Figur 2))
+: Bakterienwachstum nach 24 h Inkubation ([1]; 0,007% BBG + Octenidin 0,002%) | Bakterienwachstum nach 24 h Inkubation ([1]; 0,007% BBG, Octenidin 0%) | Bakterienwachstum nach 24 h Inkubation ([1]; 0,015% BBG + Octenidin 0,002%) | Bakterienwachstum nach 24 h Inkubation ([1]; 0,015% BBG + Octenidin 0,003%) | Bakterienwachstum nach 24 h Inkubation ([1]; 0,015% BBG, Octenidin 0%) | Bakterienwachstum nach 24 h Inkubation ([1]; 0,030% BBG + Octenidin 0,002%) | Bakterienwachstum nach 24 h Inkubation ([1]; 0,030% BBG + Octenidin 0,003%) | Bakterienwachstum nach 24 h Inkubation ([1]; 0,030% BBG + Octenidin 0,005%) | Bakterienwachstum nach 24 h Inkubation ([1]; 0,030% BBG + Octenidin 0,007%) | Bakterienwachstum nach 24 h Inkubation ([1]; 0,030% BBG, Octenidin 0%) | Bakterienwachstum nach 24 h Inkubation ([2]; 0,007% BBG, Octenidin 0%) | Bakterienwachstum nach 24 h Inkubation ([2]; 0,015% BBG + Octenidin 0,002%) | Bakterienwachstum nach 24 h Inkubation ([2]; 0,015% BBG, Octenidin 0%) | Bakterienwachstum nach 24 h Inkubation ([2]; 0,030% BBG + Octenidin 0,002%) | Bakterienwachstum nach 24 h Inkubation ([2]; 0,030% BBG + Octenidin 0,003%) | Bakterienwachstum nach 24 h Inkubation ([2]; 0,030% BBG, Octenidin 0%)
0,003%: BBG-Konzentration, bei der die Schutzwirkung einsetzt ([3]; niedrigere BAK-Konzentration (BAK 0,003%), PBS and BSS (Figur 2))
noch deutlich vorhanden: Schutzwirkung (=erhöhtes Zellüberleben) ([3]; BBG 0,025% with BAK, 60 min Einwirkzeit, PBS (Figur 1))
Ähnliches gilt: Schutzeffekt ([3]; BBG 0,025 Gew.-% with Chlorhexidin (Chlorhexidindigluconat), 5 and 30 min, compared with the CPC result (Figur 5))
~0,02%: CPC-Konzentration, bis zu der der Schutzeffekt gegeben ist ([3]; BBG 0,025 Gew.-% with CPC, 5 min and also 30 min Einwirkzeit (Figur 4))
stark reduziert: Schutzwirkung (zelltoxische Wirkung der Bakteriostatika bei gleichzeitiger Gabe) ([3]; dye given together with the bacteriostatic agent)
≤ 0,01%: Oct-Konzentration, bis zu der BBG den zellschädigenden Effekt verhindert ([3]; BBG 0,025 Gew.-%, 5 min Inkubation, highest Oct concentration tested (Figur 3))
leichten Erniedrigung des Überlebens: Überleben [3]
